Tests used:
[1] = system: brown rice planthopper (Nilaparvata lugens); test: Metamorphosis inhibitory activity against brown rice planthopper nymphs; format: in vivo; conditions: sprayed rice plants, 3rd instar nymphs, after 10 days
Protocol: Metamorphosis inhibitory activity against brown rice planthopper nymphs
An emulsifiable concentrate prepared according to Formulation Example 1 was diluted with water to make a predetermined concentration. The dilution was sprayed onto rice plants cultivated in polyethylene cups at a rate of 20 ml/2 pots on a turning table. After air-drying, the plants were infested with about ten 3rd instar nymphs of brown rice planthopper (Nilaparvata lugens). After 10 days, the number of normal adults was counted to obtain an emergence inhibitory rate.

[2] = system: cotton aphids (Aphis gossypil); test: Reproduction inhibitory activity against cotton aphids; format: in vivo; conditions: 10 ppm; sprayed potted cotton plants infested with 1st instar nymphs, one week after spraying
Protocol: Reproduction inhibitory activity against cotton aphids
An emulsifiable concentrate prepared according to Formulation Example 1 was diluted with water to make a predetermined concentration. The dilution was sprayed onto potted cotton plants (in a stage of 8-9 days after sowing) infested with 1st instar nymphs of cotton aphids (Aphis gossypil) at a rate of 30 ml/2 pots on a turning table. Before spraying and one week after spraying, the humber of nymphs and aduts was counted, and a reproduction inhibitory index was expressed by the following equation: [formula] wherein the judgement of activity is based on the following standard: A: less than 1 (excellent effect)

[3] = Nilaparvata lugens, 240 h, 5 ppm, read-out: Inhibitory rate (emergence inhibitory rate)
[4] = Nilaparvata lugens, 240 h, 0.05 ppm, read-out: Inhibitory rate (emergence inhibitory rate)

SMILES	inhibition at 5 ppm [1, 3] [%]	inhibition at 0.05 ppm [1, 4] [%]	other results
O=C(NCCOc1ccc(Oc2ccccc2)cc1)C1CC1 [A, reference compound]	0		
O=C(NCCOc1ccc(Oc2cc(F)cc(F)c2)cc1Cl)C1CC1 [Compound No. 1, N-{2-[2-Chloro-4-(3,5-difluorophenoxy)phenoxy]ethyl}-cyclopropane carboxyamide]	100	100	reproduction inhibitory index [2]: A (less than 1 (excellent effect))
S=C(NCCOc1ccc(Cc2ccccc2)cc1Cl)C1CC1 [Compound No. 3, N-[2-(4-Benzyl-2-chlorophenoxy)ethyl]-cyclopropane thiocarboxyamide]	100	100	
CC(C)COCc1ccc(OCCNC(=O)C2CC2)c(Cl)c1 [Compound No. 10, N-{2-[2-Chloro-4-(2-methylpropoxymethyl)phenoxy]ethyl}-cyclopropane carboxyamide]	100	100	
CCC(C)Oc1ccc(OCCNC(=O)C2CC2)c(Cl)c1 (stereo not drawn) [Compound No. 14, N-{2-[2-Chloro-4-(1-methylpropoxy)phenoxy]ethyl}-cyclopropane carboxyamide]	100	100	
Fc1cc(F)cc(Oc2ccc(OCCNC(=S)C3CC3)c(Cl)c2)c1 [compound 4, N-{2-[2-Chloro-4-(3,5-difluorophenoxy)phenoxy]ethyl}-cyclopropane thiocarboxyamide]	100	100	
O=C(NCCOc1ccc(Oc2cccc(F)c2)cc1Cl)C1CC1 [compound 5, N-{2-[2-Chloro-4-(3-fluorophenoxy)phenoxy]ethyl}-cyclopropane carboxyamide]	100	100	
O=C(NCCOc1ccc(Oc2cccc(Cl)c2)cc1Cl)C1CC1 [compound 6, N-{2-[2-Chloro-4-(3-chlorophenoxy)phenoxy]ethyl}-cyclopropane carboxyamide]	100	100	
O=C(NCCOc1ccc(Oc2ccc(F)cc2F)cc1Cl)C1CC1 [compound 7, N-{2-[2-Chloro-4-(2,4-difluorophenoxy)phenoxy]ethyl}-cyclopropane carboxyamide]	100		
O=C(NCCOc1cc(Oc2ccccc2)ccc1Cl)C1CC1 [compound 8, N-[2-(2-Chloro-5-phenoxyphenoxy)ethyl]-cyclopropane carboxyamide]	100	100	
CCC(C)Oc1ccc(OCCNC(=S)C2CC2)c(Cl)c1 (stereo not drawn) [compound 11, N-{2-[2-Chloro-4-(1-methylpropoxy)phenoxy]ethyl}-cyclopropane thiocarboxyamide]			Inhibitory rate (emergence inhibitory rate) ([1]; 0.05 ppm): 100%; Inhibitory rate (emergence inhibitory rate) ([1]; 5 ppm): 100%
CCC(CC)Cc1ccc(OCCNC(=O)C2CC2)c(Cl)c1 [compound 12, N-{2-[2-Chloro-4-(2-ethylbutyl)phenoxy]ethyl}-cyclopropane carboxyamide]	100	100	
O=C(NCCOc1ccc(Cc2ccccc2)cc1Cl)C1CC1 [compound 13, N-[2-(4-Benzyl-2-chlorophenoxy)ethyl]-cyclopropane carboxyamide]	100	100	
O=C(NCCOc1ccc(Oc2ccccc2)cc1Cl)C1CC1 [compound 15, N-[2-(2-Chloro-4-phenoxyphenoxy)ethyl]-cyclopropane carboxyamide]	100		
S=C(NCCOc1ccc(Oc2cccc(Cl)c2)cc1Cl)C1CC1 [compound 16, N-{2-[2-Chloro-4-(3-chlorophenoxy)phenoxy]ethyl}-cyclopropane thiocarboxyamide]			inhibition at 0.5 ppm ([1]; Nilaparvata lugens, 240 h, 0.5 ppm, read-out: Inhibitory rate (emergence inhibitory rate)): 100%
